Patent US20100031452A1, “AZO DYES” (Universite Catholique de Louvain, priority 2008, published 2010)
In brackets after ≈: the same amount, converted by molar mass. Read-outs that look alike come from different tables or passages of the source. Marks after values point to notes of the source that are not given here.

Key:
[1] = system: human intestinal cells (Caco-2); experiment: Caco-2 cytotoxicity test; type: cell-based; conditions: for Caco-2 cytotoxicity test (IC50 in g L^−1): Caco-2 human intestinal cells
Procedure: (§1) Toxicity was assessed on human intestinal cells (Caco-2), bacterial cells (Lumistox assays) and fish eggs cells. Mutagenicity was assessed through classical Ames test.
(§2) The toxicity of compound 4 has been measured on Caco-2 human cells as previously described, and compared with the toxicity of compound 1.

Ames test: mutagenicity = type: cell-based; conditions: classical Ames test
Procedure: as §1

fish eggs cells = experiment: Fish egg test; type: in vivo; conditions: for Fish egg test (IC50 in mg L^−1): in vivo
Procedure: as §1

[2] = system: bacterial cells (Lumistox assays); experiment: Lumistox test (luminescence inhibition); type: cell-based
Procedure: as §1

Caco-2 cytotoxicity test = type: cell-based, human; conditions: Caco-2 cells; Caco-2 human intestinal cells; read-out: Caco-2 cytotoxicity test (IC50 in g L^−1)
Procedure: as §1, §2

[3] = classical Ames test; published data; cited from earlier work

| Structure (SMILES) | Caco-2 cytotoxicity test (IC50 in g L^−1) [1] [µg/mL] | Ames test: mutagenicity (Ames test: mutagenicity) | Fish egg test (IC50 in mg L^−1) (fish eggs cells) [µg/mL] | Lumistox test % of luminescence inhibition at maximal OD ([2]; at maximal OD) [%] | further results |
| --- | --- | --- | --- | --- | --- |
| Nc1ccc2cc(S(=O)(=O)[O-])cc(O)c2c1N=Nc1ccc(Cl)cc1C(F)(F)F.[Na+] [Acid Red 299] | >1000 | Positive | 250 to 500 | 50.2 |  |
| Nc1c(S(=O)(=O)O)cc(/N=N/c2c(S(=O)(=O)O)cc(NC3CCCCC3)c3c2C(=O)c2ccccc2C3=O)c2c1C(=O)c1ccccc1C2=O [Compound 1, 1-[(4-amino-9,10-dioxo-3-sulfo-9,10-dihydroanthracen-1-yl)diazenyl]-4-cyclohexylamino-9,10-dioxo-9,10-dihydroanthracene-2-sulfonic acid] |  | Negative |  |  | IC50 (Caco-2 cytotoxicity test): > 1000 µg/mL; toxicity (in words) ([1]; in the range tested, with regards to other molecules available on the market): low toxicity; IC50 (fish eggs cells; read-out: Fish egg test (IC50 in mg L^−1)): 294 µg/mL (≈ 411 µM); Lumistox test % of luminescence inhibition at maximal OD ([2]; up to a maximal optical density (OD) of 1800): 41.6** % |
| O=C1c2ccccc2C(=O)c2c(/N=N\c3cccc(S(=O)(=O)O)c3)c(S(=O)(=O)O)cc(NC3CCCCC3)c21 [Compound 4, 4-Cyclohexylamino-9,10-dioxo-1-(3-sulfo-phenylazo)-9,10-dihydro-anthracene-2-sulfonic acid] |  |  |  |  | toxicity less than the toxicity of compound 1 ([1]; Caco-2 human cells, FIG. 3, relative to compound 1): 30% |
| Nc1c(N=Nc2ccc(-c3ccc(N=Nc4cc(S(=O)(=O)[O-])c5ccccc5c4N)cc3)cc2)cc(S(=O)(=O)[O-])c2ccccc12.[Na+].[Na+] [Direct Red 28] | 300 ± 20 |  | <30 | 3.4 | Ames test: mutagenicity [3]: Positive* |
| CCN(CCO)c1ccc(N=Nc2ccc([N+](=O)[O-])cc2)cc1 [Disperse Red 1] | >1000 | Negative | 250 to 500 |  | Lumistox test % of luminescence inhibition at maximal OD ([2]; saturated solution): 61.3*** % |
| O=C(Nc1cc(S(=O)(=O)[O-])cc2cc(S(=O)(=O)[O-])c(N=Nc3cc(Nc4nc(Cl)nc(Nc5ccc(S(=O)(=O)[O-])cc5)n4)ccc3S(=O)(=O)[O-])c(O)c12)c1ccccc1.[Na+].[Na+].[Na+].[Na+] [Reactive Red 4] | 700 ± 60 | Negative | 500 to 1000 | 25.9 |  |
